According to article PMC7966384, “In vivo and in vitro reconstitution of unique key steps in cystobactamid antibiotic biosynthesis” (Nature Communications, 2021):

Tests used:
[1] = molecular target: T1, CysH (Cystobacter sp. Cbv34, UniProt A0A0H4NUD7); assay: intact protein ESI-MS, loading onto T domain; type: biochemical; conditions: 1 mM ATP, 10 mM MgCl2, pH 7.5, room temperature; covalent (T domain thioester); 1 mM amino acid, 5 µM protein
T1 construct: full-length A-T module with 38 kDa AMDH domain inserted; E. coli BL21(DE3), pHisSUMOTEV, N-terminal 6xHis tag, TEV protease treated
T1 sequence (A0A0H4NUD7 entry or part of it): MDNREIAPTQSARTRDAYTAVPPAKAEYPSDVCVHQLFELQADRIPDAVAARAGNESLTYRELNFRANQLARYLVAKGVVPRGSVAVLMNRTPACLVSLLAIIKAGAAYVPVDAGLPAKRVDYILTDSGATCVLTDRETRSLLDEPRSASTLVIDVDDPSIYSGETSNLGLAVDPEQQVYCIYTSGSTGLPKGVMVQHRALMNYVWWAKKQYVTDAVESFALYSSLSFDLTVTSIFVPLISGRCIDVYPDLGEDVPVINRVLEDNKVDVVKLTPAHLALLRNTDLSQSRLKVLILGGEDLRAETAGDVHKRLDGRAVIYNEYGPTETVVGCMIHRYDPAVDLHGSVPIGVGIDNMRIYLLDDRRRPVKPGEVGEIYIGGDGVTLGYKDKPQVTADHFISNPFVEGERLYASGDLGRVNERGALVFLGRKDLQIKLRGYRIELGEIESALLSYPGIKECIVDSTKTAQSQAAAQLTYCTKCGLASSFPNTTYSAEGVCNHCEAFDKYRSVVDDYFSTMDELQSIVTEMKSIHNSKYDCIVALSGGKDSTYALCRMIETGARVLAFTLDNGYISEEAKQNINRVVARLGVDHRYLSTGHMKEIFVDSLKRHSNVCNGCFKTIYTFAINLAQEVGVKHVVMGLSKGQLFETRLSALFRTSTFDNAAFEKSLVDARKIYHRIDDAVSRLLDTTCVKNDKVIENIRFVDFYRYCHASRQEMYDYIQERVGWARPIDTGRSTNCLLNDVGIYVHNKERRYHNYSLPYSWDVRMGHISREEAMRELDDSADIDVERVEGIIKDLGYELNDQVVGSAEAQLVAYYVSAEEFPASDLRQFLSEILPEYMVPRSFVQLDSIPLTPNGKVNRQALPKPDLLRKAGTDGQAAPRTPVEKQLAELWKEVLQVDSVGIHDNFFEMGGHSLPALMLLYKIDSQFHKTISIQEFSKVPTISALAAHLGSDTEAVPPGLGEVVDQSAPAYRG

[2] = molecular target: T2, CysH∆AMDH (Cystobacter sp. Cbv34, UniProt A0A0H4NUD7); assay: intact protein ESI-MS, loading onto T domain; type: biochemical; conditions: 1 mM ATP, 10 mM MgCl2, pH 7.5, room temperature; covalent (T domain thioester); 1 mM amino acid, 5 µM protein
T2 construct: E. coli BL21(DE3)
T2 sequence (A0A0H4NUD7 entry or part of it): as above

Compound | intact protein ESI-MS, loading onto T domain [1] | intact protein ESI-MS, loading onto T domain [2]
NC(=O)C[C@H](N)C(=O)O [L-asparagine] | L-asparagine was favored as substrate by CysH | Incubation of CysH∆AMDH with L-asparagine only resulted in substrate loading
NC(=O)[C@@H](N)CC(=O)O [L-isoasparagine] | we also observed loading of L-glutamine, β-cyano-L-alanine, and L-isoasparagine | 
